Source: article PMC4053365 (PLoS ONE, 2014)
Structures can show the parent of a compound that is named as a salt.

Legend:
MOP = molecular target: MOP; set-up: method as in earlier work; details: read-out: Ki MOP (previously reported); cited from earlier work
DOP = molecular target: DOP; set-up: method as in earlier work; details: read-out: Ki DOP (previously reported); cited from earlier work
KOP = molecular target: KOP; set-up: method as in earlier work; details: read-out: Ki KOP (previously reported); cited from earlier work
MOP receptor = molecular target: T1, MOP receptor (Rattus norvegicus, UniProt P33535); assay: Radioligand binding assay, [3H]DAMGO, rat brain membranes; details: for Selectivity ratio DOP/MOP / Selectivity ratio KOP/MOP: ratio of Ki values
T1 construct: Membranes were prepared from Sprague-Dawley rat or guinea pig brains; from tissue; host or cells: Sprague-Dawley rat brain membranes

DOP receptor = molecular target: T2, DOP receptor (Rattus norvegicus, UniProt P33533); assay: Radioligand binding assay, [3H][Ile5,6]deltorphin II, rat brain membranes
T2 construct: Membranes were prepared from Sprague-Dawley rat or guinea pig brains; from tissue; host or cells: Sprague-Dawley rat brain membranes

KOP receptor = molecular target: T3, KOP receptor (Cavia porcellus, UniProt P41144); assay: Radioligand binding assay, [3H]U69,593, guinea pig brain membranes
T3 construct: Membranes were prepared from Sprague-Dawley rat or guinea pig brains; from tissue; host or cells: guinea pig brain membranes

mice [1] = assay: Tail-flick test (acute thermal nociception); format: in vivo; details: s.c.; for ED50: Mus musculus, sc, 0.5 h, 30 min after administration, read-out: ED50 (95% CL) Tail-flick test
mice [2] = assay: Observation of locomotor activity and sedation during antinociception testing; format: in vivo; details: s.c., any tested dose, about 3- to 4-fold the analgesic ED50 dose
human KOP receptor [3] = molecular target: T4, human KOP receptor (Homo sapiens, UniProt P41145); format: cell-based; set-up: expressed in transfected cells; host or cells: CHO (CHOhKOP) stably expressing Gαqi5, whole cells
human DOP receptor [4] = molecular target: T5, human DOP receptor (Homo sapiens, UniProt P41143); format: cell-based; set-up: expressed in transfected cells; host or cells: CHO (CHOhDOP) stably expressing GαqG66Di5, whole cells; details: CHO cells co-expressing human DOP and GαqG66Di5; inactive = inactive up to 10 µM; crc = concentration response curve
mice [5] = assay: Hot-plate test (acute thermal nociception); format: in vivo; details: s.c.; for ED50: Mus musculus, sc, 0.5 h, 30 min after administration, read-out: ED50 (95% CL) Hot-plate test
human MOP receptor [6] = molecular target: T6, human MOP receptor (Homo sapiens, UniProt P35372); assay: biochemical; format: biochemical; set-up: expressed in transfected cells; host or cells: CHO (CHOhMOP) cell membranes
human DOP receptor [7] = molecular target: T5, human DOP receptor; assay: biochemical; set-up: expressed in transfected cells; host or cells: CHO (CHOhDOP) cell membranes
human KOP receptor [8] = molecular target: T4, human KOP receptor; assay: biochemical; set-up: expressed in transfected cells; host or cells: CHO (CHOhKOP) cell membranes
human MOP receptor [9] = molecular target: T6, human MOP receptor; assay: cell-based; format: cell-based; set-up: expressed in transfected cells; host or cells: CHO (CHOhMOP) stably expressing Gαqi5, whole cells
rodents = details: fraction or fold of morphine potency; cited from earlier work

T4 sequence (P41145 whole entry): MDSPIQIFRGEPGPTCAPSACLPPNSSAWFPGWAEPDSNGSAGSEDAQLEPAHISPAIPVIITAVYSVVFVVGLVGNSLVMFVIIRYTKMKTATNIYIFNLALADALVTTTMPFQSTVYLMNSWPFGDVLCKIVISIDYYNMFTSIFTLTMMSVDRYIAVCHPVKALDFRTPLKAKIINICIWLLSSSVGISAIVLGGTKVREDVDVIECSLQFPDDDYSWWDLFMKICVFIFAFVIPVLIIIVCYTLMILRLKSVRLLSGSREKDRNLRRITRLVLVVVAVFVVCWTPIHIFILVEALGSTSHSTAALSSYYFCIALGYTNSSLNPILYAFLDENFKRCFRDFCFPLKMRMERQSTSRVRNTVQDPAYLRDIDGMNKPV
T1 sequence (P33535 whole entry): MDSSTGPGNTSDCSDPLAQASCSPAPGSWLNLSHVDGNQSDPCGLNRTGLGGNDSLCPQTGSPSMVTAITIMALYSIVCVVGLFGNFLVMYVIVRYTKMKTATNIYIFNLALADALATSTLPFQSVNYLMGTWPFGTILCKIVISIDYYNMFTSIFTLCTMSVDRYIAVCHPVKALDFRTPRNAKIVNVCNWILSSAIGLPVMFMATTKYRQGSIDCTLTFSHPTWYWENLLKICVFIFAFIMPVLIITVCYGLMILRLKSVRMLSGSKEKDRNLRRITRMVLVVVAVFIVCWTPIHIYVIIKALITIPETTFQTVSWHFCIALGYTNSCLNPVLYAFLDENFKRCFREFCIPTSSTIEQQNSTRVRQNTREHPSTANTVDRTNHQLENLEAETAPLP
T5 sequence (P41143 whole entry): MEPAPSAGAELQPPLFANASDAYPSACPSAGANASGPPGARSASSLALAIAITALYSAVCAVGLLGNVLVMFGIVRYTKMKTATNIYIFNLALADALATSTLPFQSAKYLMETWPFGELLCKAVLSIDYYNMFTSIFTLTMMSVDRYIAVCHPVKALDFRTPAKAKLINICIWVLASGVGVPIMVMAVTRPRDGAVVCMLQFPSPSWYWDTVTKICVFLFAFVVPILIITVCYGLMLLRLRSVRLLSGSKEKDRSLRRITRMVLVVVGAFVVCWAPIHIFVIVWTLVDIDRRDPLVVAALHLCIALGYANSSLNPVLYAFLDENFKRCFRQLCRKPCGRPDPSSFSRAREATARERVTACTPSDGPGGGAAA
T3 sequence (P41144 whole entry): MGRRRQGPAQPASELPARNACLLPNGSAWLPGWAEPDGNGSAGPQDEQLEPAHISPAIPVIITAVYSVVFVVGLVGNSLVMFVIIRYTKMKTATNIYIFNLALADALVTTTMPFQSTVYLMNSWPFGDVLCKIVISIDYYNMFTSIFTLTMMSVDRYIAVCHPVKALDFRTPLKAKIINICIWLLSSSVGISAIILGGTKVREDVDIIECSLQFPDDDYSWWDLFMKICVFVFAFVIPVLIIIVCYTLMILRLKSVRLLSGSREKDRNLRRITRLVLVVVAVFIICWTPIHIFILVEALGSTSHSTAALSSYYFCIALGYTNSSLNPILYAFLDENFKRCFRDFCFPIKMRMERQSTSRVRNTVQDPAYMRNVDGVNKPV
T6 sequence (P35372 whole entry): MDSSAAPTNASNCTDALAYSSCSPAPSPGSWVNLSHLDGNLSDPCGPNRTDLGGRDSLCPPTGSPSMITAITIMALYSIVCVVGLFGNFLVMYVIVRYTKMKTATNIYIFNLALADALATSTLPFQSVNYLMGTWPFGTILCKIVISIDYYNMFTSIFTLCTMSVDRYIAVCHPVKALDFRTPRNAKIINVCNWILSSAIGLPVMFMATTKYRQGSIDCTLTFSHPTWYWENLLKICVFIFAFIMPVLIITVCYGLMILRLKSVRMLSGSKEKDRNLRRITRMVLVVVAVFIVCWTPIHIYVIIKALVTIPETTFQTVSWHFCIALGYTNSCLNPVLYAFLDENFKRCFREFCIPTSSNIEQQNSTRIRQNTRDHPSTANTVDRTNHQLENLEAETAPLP
T2 sequence (P33533 whole entry): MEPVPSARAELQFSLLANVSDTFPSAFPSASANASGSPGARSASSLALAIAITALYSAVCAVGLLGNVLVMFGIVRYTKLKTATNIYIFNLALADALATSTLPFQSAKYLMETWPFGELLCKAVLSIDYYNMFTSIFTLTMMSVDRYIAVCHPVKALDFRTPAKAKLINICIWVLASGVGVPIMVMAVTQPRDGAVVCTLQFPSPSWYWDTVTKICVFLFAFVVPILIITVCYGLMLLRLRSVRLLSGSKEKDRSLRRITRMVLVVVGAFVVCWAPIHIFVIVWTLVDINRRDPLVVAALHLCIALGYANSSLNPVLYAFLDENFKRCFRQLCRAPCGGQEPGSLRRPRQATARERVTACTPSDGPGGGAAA

## O=C1CC[C@@]2(O)[C@H]3Cc4ccc(O)c5c4[C@@]2(CCN3Cc2ccccc2)[C@H]1O5 [Compound 5, N-Benzylnoroxymorphone]
other
  melting point: 235 to 237 °C
MOP
  Ki: […]
DOP
  Ki: […]
KOP
  Ki: […]

## Oc1ccc2c3c1O[C@H]1[C@@H](O)C=C[C@H]4[C@@H](C2)N(CCCc2ccccc2)CC[C@@]341 [Compound 2, N-phenylpropylnormorphine]
MOP receptor
  Ki: 0.0795 ± 0.0011 µM
  Selectivity ratio DOP/MOP: 11
  Selectivity ratio KOP/MOP: 7
DOP receptor
  Ki: 0.869 ± 0.171 µM
KOP receptor
  Ki: 0.565 ± 0.024 µM

## Oc1ccc2c3c1O[C@H]1[C@@H](O)C=C[C@@]4(O)[C@@H](C2)N(CCc2ccccc2)CC[C@]314 [Compound 4, N-Phenethyl-14-hydroxynormorphine]
MOP receptor
  Ki: 0.0046 ± 1e-05 µM
MOP receptor; vs compound 1
  MOP receptor affinity lower than 14-unsubstituted counterpart 1: about 5 fold
MOP receptor; vs compound 3
  MOP receptor binding affinity increase over 14-hydroxymorphine (3): about 4 fold
DOP receptor
  Ki: 0.163 ± 0.017 µM
KOP receptor
  Ki: 0.513 ± 0.066 µM
Mice [1]
  ED50: 1.14 mg/kg
Mice [2]
  Locomotor activity and sedative effects: no major alterations in locomotor activity and no sedative effects
Human KOP receptor [3]
  Calcium mobilization assay KOP EC50: inactive ^d
  Calcium mobilization assay KOP Emax: inactive ^d
Human DOP receptor [4]
  Calcium mobilization assay DOP EC50: inactive ^d

## CN1CC[C@]23c4c5ccc(O)c4O[C@H]2C(=O)CC[C@@]3(O)[C@H]1C5 [Oxymorphone, reference compound]
Mice [5]
  ED50: 0.38 mg/kg
Mice [1]
  ED50: 0.35 mg/kg

## O=C1CC[C@@]2(O)[C@H]3Cc4ccc(O)c5c4[C@@]2(CCN3CCc2ccccc2)[C@H]1O5 (as salt: HCl) [Compound 6, N-phenethylnoroxymorphone]
other
  melting point: 85 to 90 °C

## Oc1ccc2c3c1O[C@H]1[C@@H](O)C=C[C@H]4[C@@H](C2)N(CCc2ccccc2)CC[C@@]341 [Compound 1, N-phenethylnormorphine]
MOP receptor
  Ki: 0.00093 ± 0.00014 µM
  Selectivity ratio DOP/MOP: 40
  Selectivity ratio KOP/MOP: 115
MOP receptor; vs morphine
  MOP receptor affinity greater than morphine: 7 fold
DOP receptor
  Ki: 0.037 ± 0.0055 µM
KOP receptor
  Ki: 0.107 ± 0.018 µM
Mice [5]
  ED50: 0.11 mg/kg
Mice [5]; vs morphine
  Hot-plate test, more effective than morphine: 22 fold
Mice [1]
  ED50: 0.11 mg/kg
Mice [1]; vs morphine
  Tail-flick test, more effective than morphine: 28 fold
Mice [2]
  Locomotor activity and sedative effects: no major alterations in locomotor activity and no sedative effects
other
  melting point: 255 to 257 °C
Human MOP receptor [6]
  EC50: 0.0103 ± 0.0009 µM
  MOP agonist potency in [35S]GTPγS more potent than DAMGO: 2 fold
  MOP agonist potency in [35S]GTPγS more potent than morphine: about 3 fold
Human MOP receptor [6]; read-out: [35S]GTPγS functional assay MOP Emax
  Emax: 113 ± 8%
Human DOP receptor [7]
  EC50: 0.712 ± 0.086 µM
Human DOP receptor [7]; read-out: [35S]GTPγS functional assay DOP Emax
  Emax: 138 ± 17%
Human KOP receptor [8]
  EC50: 1.05 µM
Human KOP receptor [8]; read-out: [35S]GTPγS functional assay KOP Emax
  Emax: 19 ± 2%
Human MOP receptor [9]
  Calcium mobilization MOP more active than 14-hydroxy analogue 4: about 3 fold
  Calcium mobilization MOP more potent than morphine: about 3 fold
  EC50: 0.0488 ± 0.014 µM
Human MOP receptor [9]; read-out: Calcium mobilization assay MOP Emax
  Emax: 70 ± 4%
Human KOP receptor [3]
  Calcium mobilization assay KOP EC50: inactive ^d
  Calcium mobilization assay KOP Emax: inactive ^d
Human DOP receptor [4]
  Calcium mobilization assay DOP EC50: crc incomplete ^e

## O=C1CC[C@@]2(O)[C@H]3Cc4ccc(O)c5c4[C@@]2(CCN3CCc2ccccc2)[C@H]1O5 [Compound 6, N-phenethylnoroxymorphone]
Mice [5]
  ED50: 0.18 mg/kg
Mice [5]; hot-plate and tail-flick tests, vs compound 4
  Antinociceptive potency higher than 6-hydroxy counterpart 4: up to 8 fold
Mice [5]; hot-plate and tail-flick tests, vs oxymorphone
  Antinociceptive potency higher than oxymorphone: about 2 fold
Mice [1]
  ED50: 0.15 mg/kg
Mice [2]
  Locomotor activity and sedative effects: no major alterations in locomotor activity and no sedative effects

## Oc1ccc2c3c1OC1C(O)C=CC4C(C2)N(Cc2ccccc2)CCC341 (centres unmarked) [N-benzylnormorphine]
rodents
  Analgesic potency relative to morphine: less than one-tenth

## N-cyclohexylethylnormorphine
rodents
  Analgesic potency relative to morphine: one-third
